Measured values: PMC5155152, “A diverse intrinsic antibiotic resistome from a cave bacterium” (Nature Communications, 2016)
In brackets after ≈: the same amount, converted by molar mass. Where two headings read alike, the source gives them in different places. Numbered stars: 1 amine (or outer) side, 2 acyl side, 3 side chain; on linkers, the order of the positions; unused ones are H or OH. Bridge positions count the residues as written; N and C are the ends. Square brackets hold non-standard residues; d marks the D form. Peptide text beside a SMILES is read from it. * marks the point of attachment. Ileψ(thiazoline)Cys = CC[C@H](C)[C@H](N)C1=N[C@H](C(=O)*)CS1; NMePhe(4-NMe2) = CN[C@@H](Cc1ccc(N(C)C)cc1)C(=O)O; X1 = O=C([C@@H]1CC=C(CN2CCOCC2)CN1[*:1])[*:2]; Picolinoyl(3-OH) = O=C(c1ncccc1O)*; Phg = N[C@H](C(=O)O)c1ccccc1; dOrn = NCCC[C@@H](N)C(=O)O; dAbu = CC[C@@H](N)C(=O)O

How the values were obtained:
AAC(6′)-34 = test system: T1, AAC(6′)-34; assay: CoA liberation with DTDP, steady-state kinetics; assay type: biochemical, Paenibacillus sp. LC231; details: 25 mM MES pH 6.0, 1 mM EDTA, 25 °C
T1 construct: recombinant in E. coli BL21(DE3), pET vector, Ni-NTA purified

CpaA = test system: T2, CpaA; assay: spectrophotometric steady-state kinetics; assay type: biochemical, Paenibacillus sp. LC231; details: 5 μM capreomycin, 50 mM HEPES pH 7.5, 150 mM NaCl, 0.1 mM EDTA, room temperature
T2 construct: recombinant in E. coli BL21(DE3), pET vector, Ni-NTA purified

VatI = test system: T3, VatI; assay: steady-state kinetics; assay type: biochemical, Paenibacillus sp. LC231; details: 100 μM flopristin, 50 mM HEPES pH 7.5, 150 mM NaCl, 0.1 mM EDTA, 25 °C
T3 construct: recombinant in E. coli BL21(DE3), pET vector, Ni-NTA purified

Paenibacillus sp. LC231 [1] = test system: T4, Paenibacillus sp. LC231; assay: microbe, parasite or virus in culture; parameters: broth microdilution MIC, growth inhibition of Paenibacillus sp. LC231
T4 construct: LC231
Text: (§1) We generated a quantitative antibiogram for Paenibacillus sp. LC231 for 40 different antibiotics that target diverse cellular processes and compared it with the susceptibility of a surface strain of Paenibacillus lautus ATCC 43898, the pathogen Staphylococcus aureus RN4220 and the environmental bacterium Kocuria rhizophila (formerly identified as Micrococcus luteus) (Supplementary Tables 1 and 2). […] Further experiments in this study investigate the molecular basis of resistance and not the contribution of each genetic determinant to the resistance phenotype of Paenibacillus sp. LC231. […] We focused our investigation on Paenibacillus sp. LC231 and determined that in addition to resistance to 14 classes of antibiotic, it inactivates 7 distinct classes.

MphI = test system: T5, MphI; assay: steady-state kinetics; assay type: biochemical, Paenibacillus sp. LC231; details: 400 μM tylosin, 50 mM HEPES pH 7.5, 40 mM KCl, 10 mM MgCl2, 25 °C
T5 construct: recombinant in E. coli BL21(DE3), pET vector, Ni-NTA purified

Paenibacillus sp. LC231 [2] = test system: T4, Paenibacillus sp. LC231; assay: microbe, parasite or virus in culture; parameters: antibacterial susceptibility, minimal inhibitory concentration (quantitative antibiogram)
Text: as §1

| SMILES | MIC (Paenibacillus sp. LC231 [2]) [µg/mL] | other results |
| --- | --- | --- |
| CN[C@@H]1[C@@H](O)[C@@H](O[C@@H]2[C@@H](O)[C@H](O[C@H]3OC(CN)=CC[C@H]3N)[C@@H](N)C[C@H]2N)OC[C@]1(C)O [sisomicin] | – | Km (AAC(6′)-34; 500 μM acetyl-CoA): 4.7 ± 0.4 µM |
| CC(=O)SCCNC(=O)CCNC(=O)[C@H](O)C(C)(C)COP(=O)(O)OP(=O)(O)OC[C@H]1O[C@@H](n2cnc3c(N)ncnc32)[C@H](O)[C@@H]1OP(=O)(O)O [acetyl-CoA] | – | Km (CpaA): 39 ± 3 µM; Km (VatI): 48 ± 3 µM; Km (AAC(6′)-34; 35 μM sisomicin): 220 ± 26 µM |
| C=C(NC(=O)C(=C)NC(=O)c1csc(C2=N[C@@H]3c4csc(n4)[C@H]4NC(=O)c5csc(n5)[C@H]([C@](C)(O)[C@@H](C)O)NC(=O)[C@H]5CSC(=N5)/C(=C/C)NC(=O)[C@H]([C@@H](C)O)NC(=O)c5csc(n5)[C@]3(CC2)NC(=O)[C@H](C)NC(=O)C(=C)NC(=O)[C@H](C)NC(=O)[C@H]([C@@H](C)CC)N[C@@H]2C=Cc3c([C@H](C)O)cc(nc3[C@H]2O)C(=O)O[C@@H]4C)n1)C(N)=O [Thiostrepton] | – | MIC (Paenibacillus sp. LC231 [1]): 0.25 µg/mL (≈ 0.15 µM) |
| Nc1nc2c(ncn2[C@@H]2O[C@H](COP(=O)(O)OP(=O)(O)OP(=O)(O)O)[C@@H](O)[C@H]2O)c(=O)[nH]1 [GTP] | – | Km (MphI): 10 ± 1.8 µM |
| N=C1NCCC([C@@H]2NC(=O)/C(=C/NC(N)=O)NC(=O)[C@H](CNC(=O)CC(N)CCCN)NC(=O)[C@H](CO)NC(=O)[C@@H](N)CNC2=O)N1 (mixture of isomers) [capreomycin] | 32 | – |
| CO[C@H]1/C=C/O[C@@]2(C)Oc3c(C)c(O)c4c(O)c(c(/C=N/N5CCN(C)CC5)c(O)c4c3C2=O)NC(=O)/C(C)=C\C=C\[C@H](C)[C@H](O)[C@@H](C)[C@@H](O)[C@@H](C)[C@H](OC(C)=O)[C@@H]1C [rifampin] | 1 (≈ 1.22 µM) | – |
| NC[C@@H]1O[C@H](O[C@H]2[C@@H](O)[C@H](O[C@@H]3[C@@H](O)[C@H](N)C[C@H](N)[C@H]3O[C@H]3O[C@H](CN)[C@@H](O)[C@H](O)[C@H]3N)O[C@@H]2CO)[C@H](N)[C@@H](O)[C@@H]1O [Neomycin] | 2 (≈ 3.25 µM) | – |
| C[C@H]1O[C@H](O[C@H]2[C@H](O)[C@@H](O)[C@@H](O)[C@H](O)[C@@H]2O)[C@@H](N)C[C@@H]1N=C(N)C(=O)O [kasugamycin] | – | MIC (Paenibacillus sp. LC231 [1]): ≥ 128 µg/mL |
| CC(=O)NC[C@H]1CN(c2ccc(N3CCOCC3)c(F)c2)C(=O)O1 [Linezolid] | 1 (≈ 2.96 µM) | – |
| C=C[C@]1(C)C[C@@H](OC(=O)CSCCN(CC)CC)[C@]2(C)[C@H](C)CC[C@]3(CCC(=O)[C@H]32)[C@@H](C)[C@@H]1O [Tiamulin] | 32 (≈ 64.8 µM) | – |
| NCC[C@H](O)C(=O)N[C@@H]1C[C@H](N)[C@@H](O[C@H]2O[C@H](CN)[C@@H](O)[C@H](O)[C@H]2O)[C@H](O)[C@H]1O[C@H]1O[C@H](CO)[C@@H](O)[C@H](N)[C@H]1O [Amikacin] | 16 (≈ 27.3 µM) | – |
| CC1=C\[C@@H](O)C[C@@H](F)Cc2nc(co2)C(=O)N2CCC[C@@H]2C(=O)O[C@H](C(C)C)[C@H](C)/C=C/C(=O)NC\C=C\1 [Flopristin] | 32 (≈ 60.2 µM) | – |
| CN(C)[C@@H]1C(O)=C(C(N)=O)C(=O)[C@@]2(O)C(O)=C3C(=O)c4c(O)cccc4[C@@](C)(O)[C@H]3C[C@@H]12 [Tetracycline] | ≥ 128 | – |
| CNC(C)[C@@H]1CC[C@@H](N)[C@@H](O[C@H]2[C@H](O)[C@@H](O[C@H]3OC[C@](C)(O)[C@H](NC)[C@H]3O)[C@H](N)C[C@@H]2N)O1 (stereo partly drawn) [Gentamicin] | 2 (≈ 4.19 µM) | – |
| CC[C@H]1NC(=O)[C@@H](NC(=O)c2ncccc2O)[C@@H](C)OC(=O)[C@H](c2ccccc2)NC(=O)[C@@H]2CC=C(CN3CCOCC3)CN2C(=O)[C@H](Cc2ccc(N(C)C)cc2)N(C)C(=O)[C@@H]2CCCN2C1=O [linopristin] ({Picolinoyl(3-OH)}-T[dAbu]P[NMePhe(4-NMe2)][X1][Phg]; ester 1-C) | 64 (≈ 67.4 µM) | – |
| CN[C@@H]1[C@H](O)[C@H](NC)[C@H]2O[C@@]3(O)C(=O)C[C@@H](C)O[C@H]3O[C@@H]2[C@H]1O [Spectinomycin] | ≥ 128 | – |
| NC[C@H]1O[C@H](O[C@H]2[C@H](O)[C@@H](O[C@H]3O[C@H](CO)[C@@H](O)[C@H](N)[C@H]3O)[C@H](N)C[C@@H]2N)[C@H](N)C[C@@H]1O [Tobramycin] | 32 (≈ 68.4 µM) | – |
| C[C@H]1COc2c(N3CCN(C)CC3)c(F)cc3c(=O)c(C(=O)O)cn1c23 [Levofloxacin] | 0.25 (≈ 0.692 µM) | – |
| CCCCCCCCCC(=O)N[C@@H](Cc1c[nH]c2ccccc12)C(=O)N[C@H](CC(N)=O)C(=O)N[C@@H](CC(=O)O)C(=O)N[C@@H]1C(=O)NCC(=O)N[C@@H](CCCN)C(=O)N[C@@H](CC(=O)O)C(=O)N[C@H](C)C(=O)N[C@@H](CC(=O)O)C(=O)NCC(=O)N[C@H](CO)C(=O)N[C@@H]([C@H](C)CC(=O)O)C(=O)N[C@@H](CC(=O)c2ccccc2N)C(=O)O[C@@H]1C [Daptomycin] | – | MIC (Paenibacillus sp. LC231 [1]): 16 µg/mL (≈ 9.87 µM) |
| CC(=O)O[C@H]1C[C@@]2(C)[C@@H](C[C@@H](O)[C@H]3[C@@]4(C)CC[C@@H](O)[C@@H](C)[C@@H]4CC[C@@]32C)/C1=C(\CCC=C(C)C)C(=O)O [Fusidic acid] | 8 (≈ 15.5 µM) | – |
| CC[C@H](C)[C@H](N)C1=N[C@H](C(=O)N[C@@H](CC(C)C)C(=O)N[C@H](CCC(=O)O)C(=O)N[C@H](C(=O)N[C@H]2CCCCNC(=O)[C@H](CC(N)=O)NC(=O)[C@@H](CC(=O)O)NC(=O)[C@H](Cc3cnc[nH]3)NC(=O)[C@@H](Cc3ccccc3)NC(=O)[C@H]([C@@H](C)CC)NC(=O)[C@@H](CCCN)NC2=O)[C@@H](C)CC)CS1 [Bacitracin] ({Ileψ(thiazoline)Cys}-L[dE]IK[dOrn]I[dF]H[dD]N; lactam 4-C) | – | MIC (Paenibacillus sp. LC231 [1]): ≥ 128 µg/mL |
| CN[C@@H]1[C@@H](O[C@H]2O[C@H](CO)[C@@H](N)[C@H](O)[C@H]2O)O[C@H]2C[C@@H](N)[C@@H](O[C@H]3[C@H](O)[C@@H](O)[C@H](N)C[C@@H]3N)O[C@@H]2[C@@H]1O [Apramycin] | 8 (≈ 14.8 µM) | – |
